The record followed here is paper PMC6327044, “A chemical biology screen identifies a vulnerability of neuroendocrine cancer cells to SQLE inhibition” (Nature Communications, 2019).

Holding throughout (experiment): cells
What all share (parameters): species or system panel of 482 human cancer cell lines; ATPLite luminescence growth inhibition after treatment, nine-point dilution curve, 482 cancer cell lines, 384-well
Holding throughout (conditions): 72 h, recommended growth medium
On the technique in general: Cellular ATP, detected with luciferase, serves as a proxy for viable cell number.

Experiment [1] deals with WSUNHL_HAEMATOPOIETIC_AND_LYMPHOID_TISSUE. The gist of the method: (§1)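 Growth inhibition was measured across a panel of 482 cancer cell lines. Cells were plated at 500 cells per well in recommended growth media in black, tissue culture treated 384-well plates, centrifuged to equilibrate, and incubated 24 h before dosing. Compounds were tested as nine-point dilution curves for 72 h, with viability read by ATPLite luminescence relative to DMSO-treated controls.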

A further experiment relates to SNU503_LARGE_INTESTINE
The gist of the method: as §1

For the next experiment, the system named is NCIH1944_LUNG. The gist of the method: as §1
The subject of experiment [2] is KMS20_HAEMATOPOIETIC_AND_LYMPHOID_TISSUE. The gist of the method:
as §1

Another experiment deals with HCC1195_LUNG. The gist of the method:
as §1

The next experiment relates to HCC70_BREAST. The gist of the method:
as §1

Experiment [3] relates to CAL33_UPPER_AERODIGESTIVE_TRACT. The gist of the method: as §1
A further experiment concerns NCIH2170_LUNG. The gist of the method: as §1
Another experiment deals with HCC1588_LUNG. The gist of the method:
as §1

The test system of the next experiment is NCIH810_LUNG. The gist of the method:
as §1

The next experiment relates to SKBR3_BREAST. The gist of the method:
as §1

For another experiment, the system named is NCIH1581_LUNG. The gist of the method:
as §1

For the next experiment, the system named is NCIH1836_LUNG. The gist of the method: as §1
For a further experiment, the system named is LK2_LUNG. The gist of the method: as §1
Experiment [4] relates to SUDHL6_HAEMATOPOIETIC_AND_LYMPHOID_TISSUE. The gist of the method:
as §1

Experiment [5] has as its system AMO1_HAEMATOPOIETIC_AND_LYMPHOID_TISSUE. The gist of the method:
as §1

The subject of the next experiment is NCIH661_LUNG. The gist of the method:
as §1

As a reminder, the GI50 is the concentration at which growth is held to half of that of the control.

Regarding `CCN(C/C=C/C#CC(C)(C)C)Cc1cccc(OCc2cc(-c3ccsc3)cs2)c1` [NB-598], the GI50 amounted to 0.0218 µM in experiment [1]; 0.598 µM in the experiment with SNU503_LARGE_INTESTINE; 0.0271 µM with NCIH1944_LUNG; 6.54 µM in [2]; 2740 µM in the experiment with HCC1195_LUNG; 16.3 µM with HCC70_BREAST. Besides, the GI50 in [3] is 0.0425 µM; in the experiment on NCIH2170_LUNG, 0.608 µM; in the experiment with HCC1588_LUNG it was 5.16 µM; in the experiment on NCIH810_LUNG, 0.00733 µM; in the experiment with SKBR3_BREAST, 7.19 µM; in the experiment with NCIH1581_LUNG, 0.0124 µM. Also, the GI50 came to 0.0147 µM with NCIH1836_LUNG; 0.0224 µM with LK2_LUNG; 0.0789 µM in [4]; 0.032 µM in experiment [5]; 28.9 µM with NCIH661_LUNG.
